Key:
[1] = Steroids (8) 216; cited from earlier work
[2] = Oral treatment of a person with andropause-type symptoms; type: in vivo, human; settings: oral 3×100 mg daily, 4 weeks, one person
Experimental: A person with complaints of decreased libido, lethargy, depression, and muscular weakness, was treated for 4 weeks with oral androstenedione 3×100 mg daily. […] After a 2 week respite, they then commenced a 4 week regimen of 5alpha-ANDROST-1-EN-3,17-DIONE using the same protocol (3×100 mg daily).

[3] = 100 mg orally to men; cited from earlier work

Row | Structure (SMILES) | anabolic properties relative to testosterone [1] | reported improvement of symptoms (decreased libido, lethargy, depression, muscular weakness) [2] | excretion of 17beta-hydroxy-5alpha-androst-1-en-3-one in the urine [3]
1 | C[C@]12C=CC(=O)C[C@@H]1CC[C@@H]1[C@@H]2CC[C@]2(C)[C@@H](O)CC[C@@H]12 [17beta-hydroxy-5alpha-androst-1-en-3-one] | considerably more potent | – | –
2 | C[C@]12C=CC(=O)C[C@@H]1CC[C@@H]1[C@@H]2CC[C@]2(C)C(=O)CC[C@@H]12 [5alpha-ANDROST-1-EN-3,17-DIONE, 5alpha-androst-1-en-3,17-dione] | – | clearly evident significant improvements in all their symptoms | considerable excretion
3 | C[C@]12CCC(=O)C=C1CC[C@@H]1[C@@H]2CC[C@]2(C)C(=O)CC[C@@H]12 [androstenedione, 4-androstenedione] | – | did not report any noticeable improvement | –

From patent US6391868B1, “Use of 5-alpha-androst-1-en-3,17-dione to increase the level of the anabolic/androgenic hormone 17-beta-hydroxy-5-alpha-androst-1-en-3-one in humans” (LPT Research, Inc., priority 2000, dated 2002)
